Test results from ChEMBL document CHEMBL1201862, “PubChem BioAssay data set” (2004).
The source made the active and inactive calls.

Legend:
[1] = biological target: T1, Heat shock factor protein 1 (Mus musculus, UniProt P38532); assay: inhibition of MG132-induced HSE-luciferase signal, confirmation, cell-based, NIH3T3, luminescence, dose retest (AID 2382); assay type: functional;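 note: NIH3T3 fibroblasts with HSF1-driven luciferase reporter stressed by proteasome inhibitor MG132; luminescence from HSF1-driven luciferase expression after 8 hours of MG132 stress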
T1 sequence (P38532 whole entry): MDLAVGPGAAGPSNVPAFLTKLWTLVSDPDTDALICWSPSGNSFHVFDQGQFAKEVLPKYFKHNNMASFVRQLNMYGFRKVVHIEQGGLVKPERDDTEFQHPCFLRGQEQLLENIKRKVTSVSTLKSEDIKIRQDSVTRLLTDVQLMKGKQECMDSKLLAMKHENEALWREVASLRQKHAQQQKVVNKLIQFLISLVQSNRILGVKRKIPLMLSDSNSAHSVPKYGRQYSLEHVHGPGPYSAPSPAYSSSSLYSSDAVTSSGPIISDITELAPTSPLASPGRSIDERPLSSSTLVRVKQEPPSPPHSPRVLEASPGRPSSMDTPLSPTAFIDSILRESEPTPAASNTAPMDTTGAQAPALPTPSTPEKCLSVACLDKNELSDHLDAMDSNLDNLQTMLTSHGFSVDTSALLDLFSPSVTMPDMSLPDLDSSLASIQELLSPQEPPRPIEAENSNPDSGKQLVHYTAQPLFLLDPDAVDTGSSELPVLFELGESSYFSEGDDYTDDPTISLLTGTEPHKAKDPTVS

[2] = biological target: T2, Galanin receptor type 3 (Homo sapiens, UniProt O60755); assay: Fluorescence-based cell-based primary high throughput dose response assay to identify antagonists of the Galanin Receptor 3 (GalR3).; assay type: functional
T2 sequence (O60755 whole entry): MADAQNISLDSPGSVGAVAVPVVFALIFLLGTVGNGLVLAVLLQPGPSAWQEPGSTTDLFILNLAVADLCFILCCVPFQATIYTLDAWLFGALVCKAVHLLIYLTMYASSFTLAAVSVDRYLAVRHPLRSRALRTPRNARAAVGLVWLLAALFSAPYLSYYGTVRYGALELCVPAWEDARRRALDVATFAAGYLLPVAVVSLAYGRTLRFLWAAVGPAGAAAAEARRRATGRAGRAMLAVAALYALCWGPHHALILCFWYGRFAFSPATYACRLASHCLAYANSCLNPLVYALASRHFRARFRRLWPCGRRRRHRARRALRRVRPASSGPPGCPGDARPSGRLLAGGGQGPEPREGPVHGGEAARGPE

[3] = cells; assay type: functional, cell-based; settings: HEK-CNG
[4] = biological target: T3, Calpain-2 catalytic subunit (Sus scrofa, UniProt P43367); assay: pig calpain II inhibitor potency, dose response, biochemical, fluorogenic peptide substrate (AID 1420); assay type: functional
T3 sequence (P43367 whole entry): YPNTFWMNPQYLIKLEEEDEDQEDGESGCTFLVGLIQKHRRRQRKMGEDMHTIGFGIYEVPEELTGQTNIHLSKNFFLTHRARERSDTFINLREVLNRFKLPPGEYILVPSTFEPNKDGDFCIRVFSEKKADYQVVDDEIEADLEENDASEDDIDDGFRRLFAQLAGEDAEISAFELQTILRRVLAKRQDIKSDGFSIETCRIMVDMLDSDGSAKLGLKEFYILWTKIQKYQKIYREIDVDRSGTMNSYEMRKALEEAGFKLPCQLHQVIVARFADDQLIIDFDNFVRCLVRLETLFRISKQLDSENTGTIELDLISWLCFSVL

[5] = cells; assay type: functional, cell-based
[6] = cells; assay type: functional, cell-based; remark: listed apart in the source
[7] = Luminescence Cell-Based Dose Retest to Confirm Inhibitors of Cancer Stem Cells. [Related pubchem assays (depositor defined):AID2717, AID2721]; assay type: functional; settings: Homo sapiens
[8] = biological target: T4, Ubiquitin-conjugating enzyme E2 N (Homo sapiens, UniProt P61088); assay type: functional;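 note: Dose-response confirmation in a TR-FRET assay detecting UBC13-driven polyubiquitin chain formation, inhibition measured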
T4 sequence (P61088 whole entry): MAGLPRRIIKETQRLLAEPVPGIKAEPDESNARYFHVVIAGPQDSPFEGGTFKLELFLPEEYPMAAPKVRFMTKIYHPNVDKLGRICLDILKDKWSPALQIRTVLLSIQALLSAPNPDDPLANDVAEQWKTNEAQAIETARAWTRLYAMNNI

[9] = biological target: Melanocortin receptor 4 (Homo sapiens, UniProt P32245); assay type: functional, cell-based;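 note: Cell-based assay with luminescence read-out, confirmatory dose-response testing for agonist activity of biased ligands at MC4R; human U2OS cells with tagged receptor and beta-arrestin; potency of agonists that increase receptor coupling to beta-arrestin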
[10] = miR-122 activators in hepatoma reporter cells, dose response, cell-based, Huh7 psiCHECK-miR122, Renilla luciferase, cherry-picked (AID 651956); assay type: functional;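 note: huh7 hepatoma cells stably carrying a psiCHECK-2 miR-122 sensor plasmid; renilla luciferase signal reporting endogenous miR-122 activity after 48 h compound exposure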
[11] = biological target: T5, DNA repair protein RAD52 homolog (Homo sapiens, UniProt P43351); assay type: functional, biochemical
T5 sequence (P43351 whole entry): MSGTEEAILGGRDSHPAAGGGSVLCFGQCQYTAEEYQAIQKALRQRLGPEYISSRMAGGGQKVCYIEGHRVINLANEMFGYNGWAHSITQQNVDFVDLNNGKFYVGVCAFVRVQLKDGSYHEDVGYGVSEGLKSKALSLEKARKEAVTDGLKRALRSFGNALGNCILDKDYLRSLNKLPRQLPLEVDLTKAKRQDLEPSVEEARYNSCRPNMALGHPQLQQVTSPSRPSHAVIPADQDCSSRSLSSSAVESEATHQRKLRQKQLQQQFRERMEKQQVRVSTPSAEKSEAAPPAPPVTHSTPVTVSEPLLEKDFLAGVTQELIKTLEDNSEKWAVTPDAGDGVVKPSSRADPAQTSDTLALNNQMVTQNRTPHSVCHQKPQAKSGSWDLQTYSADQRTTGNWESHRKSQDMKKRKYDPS

[12] = HEK293T cytotoxicity, dose response, cytotoxicity control for miR-122 modulator project, cell-based, inhibitor set, cherry-pick, set 2 (AID 720697); assay type: functional
[13] = HEK293T cytotoxicity, dose response, cytotoxicity control for miR-122 modulator project, cell-based, activator set, cherry-pick (AID 720690); assay type: functional;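 note: HEK293T human cells scored for general mammalian cytotoxicity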

Melanocortin receptor 4, sequence (P32245 whole entry): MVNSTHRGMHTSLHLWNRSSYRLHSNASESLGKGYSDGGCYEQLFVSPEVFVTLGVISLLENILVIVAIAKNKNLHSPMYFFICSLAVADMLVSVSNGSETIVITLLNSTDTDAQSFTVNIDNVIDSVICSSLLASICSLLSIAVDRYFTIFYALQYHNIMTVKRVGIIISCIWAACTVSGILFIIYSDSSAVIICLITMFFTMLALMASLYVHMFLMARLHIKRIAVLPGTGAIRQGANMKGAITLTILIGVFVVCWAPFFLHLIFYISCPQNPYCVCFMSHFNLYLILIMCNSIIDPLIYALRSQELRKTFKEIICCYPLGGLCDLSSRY

Structure (SMILES): N#Cc1c(N)nc2c3c(sc(=N)c2c1N)NC(=O)CC3c1ccccc1 (stereo unspecified)
- EC50 [1]: > 195 µM (not active)
- IC50 [2]: > 29.9 µM (inactive)
- EC50 [3]: > 29.9 µM (inactive)

Structure (SMILES): O=C(NCCc1ccccc1)c1cnc2n(c1=O)CCS2
- IC50 [4]: 24.2 µM (not active)
- IC50 [5]: > 29.9 µM (inactive)
- EC50 [6]: > 29.9 µM (inactive)

Structure (SMILES): CCCCCCOc1ccc(/C(C)=N/NC2=NCCN2)cc1
- AC50 [7]: 3.05 µM (active)
- IC50 [8]: > 20 µM (inactive)
- EC50 [9]: > 89.1 µM (inactive)
- AC50 [10]: 22.2 µM (active)
- AC50 [11]: 23 µM (active)
- AC50 [12]: 16 µM (active)
- AC50 [13]: 16.3 µM (active)

Structure (SMILES): C[C@@H]1CN([C@@H](C)CO)S(=O)(=O)c2ccc(-c3ccc(C(=O)N(C)C)cc3)cc2O[C@@H]1CN(C)C(=O)C1CCC1
- AC50 [10]: 13.8 µM (active)
- AC50 [12]: 0.516 µM (active)

Structure (SMILES): COc1ccccc1-c1ccc2c(c1)O[C@@H](CN(C)S(=O)(=O)c1ccc(F)cc1)[C@@H](C)CN([C@@H](C)CO)S2(=O)=O
- AC50 [13]: 42.4 µM (active)
